Consider 1 substance from patent US9686971B2, “Methods for testing anti-thrombotic agents” (The Trustees of Columbia University in the City of New York, priority 2006, dated 2017).

In one experiment the target is T1, murine αIIbβ3 (Mus musculus, UniProt O54890+Q9QUM0).
T1 sequence (Q9QUM0 32-1033): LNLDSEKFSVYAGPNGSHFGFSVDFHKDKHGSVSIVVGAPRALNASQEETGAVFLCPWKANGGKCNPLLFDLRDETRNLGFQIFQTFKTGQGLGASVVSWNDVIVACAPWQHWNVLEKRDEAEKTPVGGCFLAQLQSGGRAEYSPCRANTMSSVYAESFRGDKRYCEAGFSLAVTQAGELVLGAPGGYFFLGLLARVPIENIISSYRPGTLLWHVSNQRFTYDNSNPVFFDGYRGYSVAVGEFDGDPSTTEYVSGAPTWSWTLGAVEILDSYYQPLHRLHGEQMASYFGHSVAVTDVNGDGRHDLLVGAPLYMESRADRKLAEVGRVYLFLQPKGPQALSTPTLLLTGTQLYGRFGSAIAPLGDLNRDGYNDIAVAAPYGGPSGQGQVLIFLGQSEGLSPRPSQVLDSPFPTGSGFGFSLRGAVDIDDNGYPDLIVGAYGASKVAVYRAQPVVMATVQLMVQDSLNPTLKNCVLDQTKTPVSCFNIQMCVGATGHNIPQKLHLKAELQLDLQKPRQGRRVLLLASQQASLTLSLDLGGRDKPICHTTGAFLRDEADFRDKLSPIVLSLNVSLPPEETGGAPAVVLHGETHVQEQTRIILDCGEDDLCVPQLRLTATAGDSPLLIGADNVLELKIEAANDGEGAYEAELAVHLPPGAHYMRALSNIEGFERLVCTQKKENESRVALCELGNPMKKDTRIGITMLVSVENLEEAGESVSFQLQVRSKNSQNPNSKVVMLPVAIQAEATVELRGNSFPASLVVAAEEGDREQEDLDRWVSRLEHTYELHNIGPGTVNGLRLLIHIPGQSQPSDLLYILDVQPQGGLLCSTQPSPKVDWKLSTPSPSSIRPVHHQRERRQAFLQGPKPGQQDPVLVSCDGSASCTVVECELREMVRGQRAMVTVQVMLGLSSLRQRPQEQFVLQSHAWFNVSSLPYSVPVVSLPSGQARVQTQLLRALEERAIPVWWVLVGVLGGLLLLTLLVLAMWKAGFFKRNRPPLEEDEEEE
T1 sequence (O54890 26-787): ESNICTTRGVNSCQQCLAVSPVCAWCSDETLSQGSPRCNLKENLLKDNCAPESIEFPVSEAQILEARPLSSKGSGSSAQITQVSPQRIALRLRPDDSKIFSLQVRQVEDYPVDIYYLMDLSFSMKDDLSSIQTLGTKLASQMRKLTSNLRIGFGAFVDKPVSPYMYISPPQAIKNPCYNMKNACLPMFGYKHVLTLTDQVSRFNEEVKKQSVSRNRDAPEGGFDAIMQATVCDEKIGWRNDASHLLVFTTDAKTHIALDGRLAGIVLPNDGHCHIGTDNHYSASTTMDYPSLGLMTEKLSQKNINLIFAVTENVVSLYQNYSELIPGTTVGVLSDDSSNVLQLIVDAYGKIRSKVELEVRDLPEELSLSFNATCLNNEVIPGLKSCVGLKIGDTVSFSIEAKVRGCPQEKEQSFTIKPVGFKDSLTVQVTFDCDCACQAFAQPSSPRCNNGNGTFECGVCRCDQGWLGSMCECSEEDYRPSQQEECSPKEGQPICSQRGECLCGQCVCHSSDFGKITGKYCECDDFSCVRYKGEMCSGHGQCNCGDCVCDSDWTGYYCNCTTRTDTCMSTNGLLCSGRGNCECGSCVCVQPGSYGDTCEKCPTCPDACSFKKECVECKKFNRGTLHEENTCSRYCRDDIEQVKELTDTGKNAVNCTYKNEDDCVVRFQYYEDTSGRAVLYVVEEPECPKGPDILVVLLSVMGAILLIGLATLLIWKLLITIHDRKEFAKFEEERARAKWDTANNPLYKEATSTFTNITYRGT
The following applies: cited from earlier work.

For the next experiment, the system named is human platelets. The experiment is described as follows: Tail bleeding assay, human platelet-induced hemostasis in homozygous VWF^1326R>H mice. The format is in vivo, mouse. The note with it: for human platelet-induced hemostatic clot / plug formation (words): PLAVIX 50 mg/kg oral day before and 2 h prior, ReoPro 0.25 mg/kg iv bolus then 0.125 μg/kg/min, 5 min after human platelets. Here is the method: This assay provides an indirect measure of the ability of platelets and VWF to support hemostasis by interacting with the injured vessel wall. It also indirectly determines the function of multiple receptors and ligands on platelets that are required to form a hemostatic plug. […] It is performed by immersing the severed tip (10 mm) of the animal's tail in isotonic saline at 37° C. and monitoring the length of time required for bleeding to cease. Homozygous mutant mice will be infused with an equal volume of either saline or purified human platelets. Platelet specific antibodies or drugs will be administered as described above and their ability to prolong bleeding time evaluated. All experiments will be stopped at 10 min by cauterizing the tail (51).
Tail cuts were performed 5 min after completion of the infusion of platelets. PLAVIX and ReoPro® were obtained from the research pharmacy at CUMC. For studies involving PLAVIX, animals received a 50 mg/kg oral dose of the drug the day before and 2 h prior to the administration of human platelets.

In the case of “abciximab: Fab fragment of the chimeric human-mouse monoclonal antibody 7E3, which blocks the function of αIIbβ3 on human platelets”, the “binding / function of murine αIIbβ3” value with murine αIIbβ3 is reported as “does not bind or disrupt the function of murine αIIbβ3”. In addition, the results for the “human platelet-induced hemostatic clot / plug formation (words)” value in the experiment with human platelets and in the experiment on human platelets (listed as ReoPro) were “completely disrupted” and “prevented the formation of a hemostatic plug”, respectively. In the experiment with human platelets (homozygous VWF^1326R>H mice, given after infusion of human platelets), the mean bleeding time amounted to 579 s.
